The values below come from patent publication US20130079373A1, “Substituted Methanesulfonamide Derivatives as Vanilloid Receptor Ligands” (priority 2011, published 2013).

The structures appear in SMILES notation.

The target in this experiment is T1, vanilloid receptor 1 (VR1/TRPV1 receptor) (Homo sapiens, UniProt Q8NER1).
T1 construct: expressed in transfected cells; host or cells: CHO K1
T1 sequence (Q8NER1 whole entry): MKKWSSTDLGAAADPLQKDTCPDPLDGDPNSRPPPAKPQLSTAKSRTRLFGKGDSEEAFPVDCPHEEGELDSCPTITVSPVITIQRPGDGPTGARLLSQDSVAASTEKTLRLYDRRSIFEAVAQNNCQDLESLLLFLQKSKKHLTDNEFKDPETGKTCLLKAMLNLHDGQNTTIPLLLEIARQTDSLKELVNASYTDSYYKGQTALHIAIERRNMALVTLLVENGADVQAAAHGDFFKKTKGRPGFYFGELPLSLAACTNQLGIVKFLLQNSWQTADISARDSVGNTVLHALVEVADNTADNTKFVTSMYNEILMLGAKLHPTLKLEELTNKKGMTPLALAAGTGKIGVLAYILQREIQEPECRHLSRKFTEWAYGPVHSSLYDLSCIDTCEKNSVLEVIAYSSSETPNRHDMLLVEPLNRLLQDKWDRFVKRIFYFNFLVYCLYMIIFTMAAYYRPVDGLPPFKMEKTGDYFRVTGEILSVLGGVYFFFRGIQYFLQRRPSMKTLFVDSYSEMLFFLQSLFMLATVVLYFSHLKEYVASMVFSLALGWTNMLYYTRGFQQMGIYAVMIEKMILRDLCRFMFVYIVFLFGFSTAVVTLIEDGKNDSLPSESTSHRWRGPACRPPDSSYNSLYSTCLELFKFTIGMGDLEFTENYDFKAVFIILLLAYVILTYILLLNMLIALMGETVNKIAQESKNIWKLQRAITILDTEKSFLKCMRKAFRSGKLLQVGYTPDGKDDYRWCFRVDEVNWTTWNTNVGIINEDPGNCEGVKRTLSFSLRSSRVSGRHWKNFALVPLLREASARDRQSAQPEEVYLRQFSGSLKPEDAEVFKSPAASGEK
Put plainly: Functional testing on the vanilloid receptor 1 (FLIPR Ca2+ influx assay, capsaicin stimulation). To be noted: Cap = capsaicin; human being; Ki from IC50 by the Cheng-Prusoff equation; read-out: (f) Ki (human being) [nM] Cap. It counts as cell-based. The procedure:
Furthermore, preference may be given to compounds according to the invention that cause a 50 percent displacement of capsaicin, which is present at a concentration of 100 nM, in a FLIPR assay with CHO K1 cells which were transfected with the human VR1 gene at a concentration of less than 2,000 nM, preferably less than 1,000 nM, particularly preferably less than 300 nM, most particularly preferably less than 100 nM, even more preferably less than 75 nM, additionally preferably less than 50 nM, most preferably less than 10 nM.
In the process, the Ca^2+ influx is quantified in the FLIPR assay with the aid of a Ca^2+-sensitive dye (type Fluo-4, Molecular Probes Europe BV, Leiden, the Netherlands) in a fluorescent imaging plate reader (FLIPR, Molecular Devices, Sunnyvale, USA), as described hereinafter.
I. Functional Testing Carried Out on the Vanilloid Receptor 1 (VR1/TRPV1 Receptor) […]
The number of cells in the suspension is set to 3×10^5 per mL and 150 μL of this suspension are in each case introduced into a recess in the cell culture plates coated as described hereinbefore. In the incubator the plates are left for two to three days at 37° C., 5% by volume of CO2 and 95% relative humidity. Subsequently, the cells are loaded with 2 μM of Fluo-4 and 0.01% by volume of Pluronic F127 (Molecular Probes Europe BV, Leiden, the Netherlands) in HBSS buffer (Hank's buffered saline solution, Gibco Invitrogen GmbH, Karlsruhe, Germany) for 30 min at 37° C., washed 3 times with HBSS buffer and after further incubation for 15 minutes at room temperature used for Ca^2+ measurement in a FLIPR assay. The Ca^2+ dependent fluorescence is in this case measured before and after the addition of substances (λex=488 nm, λem=540 nm). Quantification is carried out by measuring the highest fluorescence intensity (FC, fluorescence counts) over time.
The FLIPR protocol consists of 2 substance additions. First the compounds to be tested (10 μM) are pipetted onto the cells and the Ca^2+ influx is compared with the control (capsaicin 10 μM). This provides the result in % activation based on the Ca^2+ signal after the addition of 10 μM of capsaicin (CP). After 5 minutes' incubation, 100 nM of capsaicin are applied and the Ca^2+ influx is also determined.
Desensitising agonists and antagonists lead to suppression of the Ca^2+ influx. The % inhibition is calculated compared to the maximum achievable inhibition with 10 μM of capsazepine.
Triple analyses (n=3) are carried out and repeated in at least 3 independent experiments (N=4).
Starting from the percentage displacement caused by different concentrations of the compounds to be tested of general formula I, IC50 inhibitory concentrations which cause a 50-percent displacement of capsaicin were calculated. Ki values for the test substances were obtained by conversion by means of the Cheng-Prusoff equation (Cheng, Prusoff; Biochem. Pharmacol. 22, 3099-3108, 1973).
The affinity of the compounds according to the invention for the vanilloid receptor 1 (VR1/TRPV1 receptor) was determined as described hereinbefore (pharmacological method I).
For the compound `CC(C(=O)NCc1ccc(C(F)(F)F)nc1/C=C/C(C)(C)C)c1ccc(CNS(C)(=O)=O)c(F)c1` (stereo not drawn) [Example 4, (E)-N-((2-(3,3-dimethylbut-1-enyl)-6-(trifluoromethyl)pyridin-3-yl)methyl)-2-(3-fluoro-4-(methylsulfonamidomethyl)phenyl)propanamide], the inhibitory constant (Ki) is 12 nM.

`NS(=O)(=O)NCc1ccc(NC(=O)NCc2ccc(C(F)(F)F)nc2OC2CCCC2)cc1` [Example 34, 1-{[2-cyclopentyloxy-6-(trifluoromethyl)pyridin-3-yl]methyl}-3-{4-[(sulfamoylamino)methyl]phenyl}urea]: the Ki is 1 nM.

`CC(C(=O)NCc1ccc(C(F)(F)F)nc1SC1CCCCC1)c1ccc(CNS(C)(=O)=O)c(F)c1` (stereo not drawn) [Example 43, N-((2-(cyclohexylthio)-6-(trifluoromethyl)pyridin-3-yl)methyl)-2-(3-fluoro-4-(methylsulfonamidomethyl)phenyl)propanamide]: the inhibition constant (Ki) came to 44 nM.

By Ki is commonly meant a dissociation constant, usually derived from enzyme kinetics or from competition with a known ligand.
